Reference: patent US7910582B2, “Cyclopropyl amines as modulators of the histamine H3 receptor” (Janssen Pharmaceutica NV, priority 2005, dated 2011)
Counter-ions that a name gives are not always drawn. Like-named read-outs stand apart in the source and are kept apart here. Values belong to the compound of their own block, whether it stands above or below them.

Tests used:
Human H3 Receptor [1] = target: T1, Human H3 Receptor (Homo sapiens, UniProt Q9Y5N1); experiment: Cyclic AMP accumulation, SK-N-MC cells with reporter construct and human H3 receptor (pA2); type: cell-based; conditions: pA2, average of results
T1 construct: expressed in transfected cells
Protocol: Cells were grown to about 70% to 80% confluence and removed from the plate with trypsin and pelleted in a clinical centrifuge. […] One μg supercoiled H3 receptor cDNA was added to the cells and mixed gently. The voltage for the electroporation was set at 0.25 kV and the capacitance was set at 960 μF. After electroporation the cells were diluted with 10 mL of complete media and were plated onto four 10 cm dishes at the following ratios: 1:20, 1:10, 1:5, and 1:2. […] Colonies that survived selection were grown and tested. SK-N-MC cells were used because they give efficient coupling for inhibition of adenylate cyclase. The clones that gave the most robust inhibition of adenylate cyclase in response to histamine were used for further study.
Sublines of SK-N-MC cells were created that expressed a reporter construct and the human H3 receptor.

[2] = Pharmacokinetics and bioanalysis in the rat; type: in vivo, male Sprague Dawley Rats; conditions: for half-life (T1/2) relative to the comparative examples / volume of distribution (Vd) relative to the comparative examples: compared with isopropyl / cyclobutyl analogs
Protocol: One group of six male Sprague Dawley Rats (approx. 300 g body weight; three animals per time point) was used. They were group-housed, provided food and water ad libitum, and were maintained on a 12-h light and dark cycle. Animals were acclimatized for at least 7 days after receipt from the vendor prior to investigations.
For oral dosing, test compounds were formulated at 1 mg/mL in 0.5% hydroxypropyl methyl cellulose and delivered at a dose of 10 mg/kg. Citric acid salt forms (prepared as described for Example 1B) of the test compounds were used. Animals received a bolus dose of 10 mg/kg (10 mL/kg) for each compound via a 16 gauge intragastric gavage. For intravenous dosing, test compounds were formulated at 1 mg/mL in 5% dextrose in water and dosed at 1 mg/kg (1 mL/kg) with a bolus intravenous dose via a 24-gauge Terumo® Surflo® catheter in the lateral tail vein. All dosing solutions were prepared immediately prior to injection.
Blood samples (250 μL) were taken from the lateral tail vein into heparinized Natelson blood collection tubes and expelled into 1.5 mL mcirocentrifuge tubes. The blood samples were centrifuged for 5 min at 14,000 rpm in a micro-centrifuge. Plasma was retained and kept in a −20° C. freezer until analysis by LC-MS/MS.
Data analysis was performed using WinNonlin version 3.3 or 4.0.1. A non -compartmental model (#200 for Extravascular administration and #201 for i.v.) was used to determine the pharmacokinetic parameters shown in Tables 4 and 5 (NA=not applicable or not determined).

Human H3 Receptor [3] = target: T1, Human H3 Receptor; experiment: [3H]-N-Methylhistamine binding, membranes of H3 receptor-expressing SK-N-MC cells; conditions: 0.8 nM [3H]-N-methylhistamine, 60 min at 25° C., average of results
Protocol: Cells were grown to about 70% to 80% confluence and removed from the plate with trypsin and pelleted in a clinical centrifuge. The pellet was then re-suspended in 400 μL of complete media and transferred to an electroporation cuvette with a 0.4 cm gap between the electrodes (Bio-Rad #165-2088). One μg supercoiled H3 receptor cDNA was added to the cells and mixed gently. The voltage for the electroporation was set at 0.25 kV and the capacitance was set at 960 μF. After electroporation the cells were diluted with 10 mL of complete media and were plated onto four 10 cm dishes at the following ratios: 1:20, 1:10, 1:5, and 1:2. The cells were allowed to recover for 24 h before adding 600 μg G-418. Colonies that survived selection were grown and tested. SK-N-MC cells were used because they give efficient coupling for inhibition of adenylate cyclase. The clones that gave the most robust inhibition of adenylate cyclase in response to histamine were used for further study.
Cell pellets from histamine H3 receptor-expressing SK-N-MC cells were homogenized in 50 mM TrisHCl/0.5 mM EDTA. Supernatants from an 800 g spin were collected and were recentrifuged at 30,000 g for 30 min. Pellets were re-homogenized in 50 mM Tris/5 mM EDTA (pH 7.4). Membranes were incubated with 0.8 nM [^3H]-N-methylhistamine plus/minus test compounds for 60 min at 25° C. and were harvested by rapid filtration over GF/C glass fiber filters (pretreated with 0.3% polyethylenimine) followed by four washes with buffer. Filters were added to 5 mL of scintillation cocktail, and the signal was then counted on a liquid scintillation counter.

[4] = male, Sprague Dawley, iv, i.v. 1 mg/kg, citric acid salt, plasma
[5] = male, Sprague Dawley, iv, i.v. 1 mg/kg, citric acid salt, plasma, read-out: AUCINF
[6] = male, Sprague Dawley, oral 10 mg/kg, citric acid salt, plasma
[7] = male, Sprague Dawley, oral 10 mg/kg, citric acid salt, plasma, read-out: AUCINF
[8] = male, Sprague Dawley, plasma, iv, i.v. 1 mg/kg, citric acid salt, read-out: Vd
[9] = oral 10 mg/kg, citric acid salt
[10] = male, Sprague Dawley, iv, i.v. 1 mg/kg, citric acid salt, plasma, read-out: AUCINF (h-μmol/mL)
[11] = male, Sprague Dawley, oral 10 mg/kg, citric acid salt, plasma, read-out: AUCINF (h-μmol/mL)

T1 sequence (Q9Y5N1 whole entry): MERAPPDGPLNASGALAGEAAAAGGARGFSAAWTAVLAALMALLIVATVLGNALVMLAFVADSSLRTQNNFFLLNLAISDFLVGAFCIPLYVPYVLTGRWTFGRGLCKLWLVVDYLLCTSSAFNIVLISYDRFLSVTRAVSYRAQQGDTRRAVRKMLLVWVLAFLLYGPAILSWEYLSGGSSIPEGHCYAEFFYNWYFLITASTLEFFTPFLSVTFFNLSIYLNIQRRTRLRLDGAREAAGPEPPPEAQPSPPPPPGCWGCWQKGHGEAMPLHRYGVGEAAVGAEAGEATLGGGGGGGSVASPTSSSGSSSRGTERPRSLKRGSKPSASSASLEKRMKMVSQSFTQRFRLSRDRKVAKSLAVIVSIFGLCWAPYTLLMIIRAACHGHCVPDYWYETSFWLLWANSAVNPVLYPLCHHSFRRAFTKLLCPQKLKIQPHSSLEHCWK

SMILES: CC(C)N1CCN(C(=O)c2ccc(CN3CCOCC3)cc2)CC1 [Comparative Example 1, (4-Isopropyl-piperazin-1-yl)-(4-morpholin-4-ylmethyl-phenyl) -methanone]
Kb (Human H3 Receptor [1]): 1 nM

SMILES: CC(C)N1CCN(C(=O)c2ccc(CN3CCOCC3)cc2)CC1 [Comparative Example 1A, (4-Isopropyl-piperazin-1-yl)-(4-morpholin-4-ylmethyl-phenyl) -methanone dihydrochloride]
Kb (Human H3 Receptor [1]): 1.26 nM

SMILES: CC(C)N1CCN(C(=O)c2ccc(CN3CCOCC3)cc2)CC1.O=C(O)CC(O)(CC(=O)O)C(=O)O [Comparative Example 1B, (4-Isopropyl-piperazin-1-yl)-(4-morpholin-4-ylmethyl-phenyl) -methanone citrate salt]
CI ([2]; i.v. 1 mg/kg, citric acid salt): 12.8 mL/min/kg
T1/2 ([2]; i.v. 1 mg/kg, citric acid salt, plasma): 3.2 h
Cmax [2, 4]: 4110 ng/mL
AUC(0-inf) [2, 5]: 1560 ng·h/mL
Cmax [2, 6]: 1050 ng/mL
Tmax [2, 6]: 1.5 h
half-life [2, 6]: 4.71 h
AUC(0-inf) [2, 7]: 9740 ng·h/mL
Vd [2, 8]: 3.55 L/kg
CI [2, 9]: 17.1 mL/min/kg
Vd [2, 9]: 6.98 L/kg

SMILES: O=C(c1ccc(CN2CCOCC2)cc1)N1CCN(C2CCC2)CC1 [Comparative Example 2A, (4-Cyclobutyl-piperazin-1-yl)-(4-morpholin-4-ylmethyl-phenyl)-methanone dihydrochloride]
Ki (Human H3 Receptor [3]; read-out: Ki): 1.7 nM

SMILES: O=C(O)CC(O)(CC(=O)O)C(=O)O.O=C(c1ccc(CN2CCOCC2)cc1)N1CCN(C2CCC2)CC1 [Comparative Example 2B, (4-Cyclobutyl-piperazin-1-yl)-(4-morpholin-4-ylmethyl-phenyl)-methanone citrate salt]
Ki (Human H3 Receptor [3]; read-out: Ki): 2 nM
CI ([2]; i.v. 1 mg/kg, citric acid salt): 34.8 mL/min/kg
Cmax [2, 4]: 285 ng/mL
half-life [2, 4]: 1.86 h
AUC(0-inf) [2, 5]: 464 ng·h/mL
Cmax [2, 6]: 683 ng/mL
Tmax [2, 6]: 1.33 h
half-life [2, 6]: 2.89 h
AUC(0-inf) [2, 7]: 4100 ng·h/mL
Vd [2, 8]: 6.41 L/kg
CI [2, 9]: 43.2 mL/min/kg
Vd [2, 9]: 10.33 L/kg

SMILES: CC(C)N1CCN(C(=O)c2ccc(CN3CCC(F)CC3)cc2)CC1 [Comparative Example 3, [4-(4-Fluoro-piperidin-1-ylmethyl)-phenyl]-(4-isopropyl-piperazin-1-yl)-methanone]
Ki (Human H3 Receptor [3]; read-out: Ki): 2 nM

SMILES: O=C(O)CC(O)(CC(=O)O)C(=O)O.O=C(c1ccc(CN2CCC(F)CC2)cc1)N1CCN(C2CCC2)CC1 [Comparative Example 4B, (4-Cyclobutyl-piperazin-1-yl)-[4-(4-fluoro-piperidin-1-ylmethyl)-phenyl]-methanone citrate salt]
CI ([2]; i.v. 1 mg/kg, citric acid salt): 113 mL/min/kg
Vd ([2]; i.v. 1 mg/kg, citric acid salt): 20.3 L/kg
Cmax [2, 4]: 460 nM
half-life [2, 4]: 2.08 h
AUC(0-inf) [2, 10]: 0.41 µM·h
Cmax [2, 6]: 480 nM
Tmax [2, 6]: 0.67 h
half-life [2, 6]: 3.44 h
AUC(0-inf) [2, 11]: 1.28 µM·h
CI [2, 9]: 1135 mL/min/kg
Vd [2, 9]: 397 L/kg

Ki (Human H3 Receptor [3]; read-out: Ki): 1 nM
SMILES: O=C(c1ccc(CN2CCSCC2)cc1)N1CCN(C2CCC2)CC1 [Comparative Example 5, (4-Cyclobutyl-piperazin-1-yl)-(4-thiomorpholin-4-ylmethyl-phenyl)-methanone]

SMILES: O=C(O)CC(O)(CC(=O)O)C(=O)O.O=C(c1ccc(CN2CCSCC2)cc1)N1CCN(C2CCC2)CC1 [Comparative Example 5B, (4-Cyclobutyl-piperazin-1-yl)-(4-thiomorpholin-4-ylmethyl-phenyl)-methanone citrate salt]
CI ([2]; i.v. 1 mg/kg, citric acid salt): 154 mL/min/kg
Cmax [2, 4]: 2680 nM
half-life [2, 4]: 1.33 h
AUC(0-inf) [2, 10]: 0.42 µM·h
Cmax [2, 6]: 70 nM
Tmax [2, 6]: 0.38 h
half-life [2, 6]: 0.95 h
AUC(0-inf) [2, 11]: 0.12 µM·h
Vd [2, 8]: 17.8 L/kg

SMILES: CC(C)N1CCN(C(=O)c2ccc(CN3CCOC(CO)C3)cc2)CC1 (centres unmarked) [Comparative Example 6B, [4-(2-Hydroxymethyl-morpholin-4-ylmethyl)-phenyl]-(4-isopropyl-piperazin-1-yl)-methanone citratae salt]
Ki (Human H3 Receptor [3]; read-out: Ki): 5 nM
CI ([2]; i.v. 1 mg/kg, citric acid salt): 34.9 mL/min/kg
Cmax [2, 4]: 1410 nM
half-life [2, 4]: 2.36 h
AUC(0-inf) [2, 10]: 1.34 µM·h
Cmax [2, 6]: 2960 nM
Tmax [2, 6]: 0.5 h
half-life [2, 6]: 4.35 h
AUC(0-inf) [2, 11]: 20 µM·h
Vd [2, 8]: 7.04 L/kg

SMILES: O=C(O)CC(O)(CC(=O)O)C(=O)O.O=C(c1ccc(CN2CCOCC2)cc1)N1CCN(C2CC2)CC1 [Example 1B, (4-Cyclopropyl-piperazin-1-yl)-(4-morpholin-4-ylmethyl-phenyl) -methanone citrate salt]
Ki (Human H3 Receptor [3]; Ki (nM)): 6.5 nM
half-life (T1/2) relative to the comparative examples [2]: shorter half-life
volume of distribution (Vd) relative to the comparative examples [2]: lower volume of distribution
CI ([2]; i.v. 1 mg/kg, citric acid salt): 21.6 mL/min/kg
Cmax [2, 4]: 935 ng/mL
half-life [2, 4]: 0.92 h
AUC(0-inf) [2, 5]: 777 ng·h/mL
Cmax [2, 6]: 2790 ng/mL
Tmax [2, 6]: 0.5 h
half-life [2, 6]: 3.11 h
AUC(0-inf) [2, 7]: 8720 ng·h/mL
Vd [2, 8]: 1.72 L/kg
CI [2, 9]: 20.2 mL/min/kg
Vd [2, 9]: 5.45 L/kg

SMILES: O=C(c1ccc(CN2CCC(F)CC2)cc1)N1CCN(C2CC2)CC1 [Example 2, (4-Cyclopropyl-piperazin-1-yl)-[4-(4-fluoro-piperidin-1-ylmethyl)-phenyl]-methanone]
Ki (Human H3 Receptor [3]; read-out: Ki): 2 nM

Ki (Human H3 Receptor [3]; read-out: Ki): 2.5 nM
SMILES: O=C(c1ccc(CN2CCSCC2)cc1)N1CCN(C2CC2)CC1 [Example 3, (4-Cyclopropyl-piperazin-1-yl)-(4-thiomorpholin-4-ylmethyl-phenyl) -methanone]

SMILES: O=C(O)CC(O)(CC(=O)O)C(=O)O.O=C(c1ccc(CN2CCSCC2)cc1)N1CCN(C2CC2)CC1 [Example 3B, (4-Cyclopropyl-piperazin-1-yl)-(4-thiomorpholin-4-ylmethyl-phenyl) -methanone citrate salt]
half-life (T1/2) relative to the comparative examples [2]: shorter T1/2
volume of distribution (Vd) relative to the comparative examples [2]: lower Vd
CI ([2]; i.v. 1 mg/kg, citric acid salt): 282 mL/min/kg
Cmax [2, 4]: 860 nM
half-life [2, 4]: 0.27 h
AUC(0-inf) [2, 10]: 0.18 µM·h
Cmax [2, 6]: 190 nM
Tmax [2, 6]: 0.25 h
half-life [2, 6]: 0.41 h
AUC(0-inf) [2, 11]: 0.18 µM·h
Vd [2, 8]: 6.48 L/kg

Ki (Human H3 Receptor [3]; read-out: Ki): 6 nM
SMILES: O=C(c1ccc(CN2CCOC(CO)C2)cc1)N1CCN(C2CC2)CC1 (centres unmarked) [Example 4, (4-Cyclopropyl-piperazin-1-yl)-[4-(2-hydroxymethyl-morpholin-4-ylmethyl)-phenyl]-methanone]

SMILES: O=C(O)CC(O)(CC(=O)O)C(=O)O.O=C(c1ccc(CN2CCOC(CO)C2)cc1)N1CCN(C2CC2)CC1 (centres unmarked) [Example 4B, (4-Cyclopropyl-piperazin-1-yl)-[4-(2-hydroxymethyl-morpholin-4-ylmethyl)-phenyl]-methanone citrate salt]
Ki (Human H3 Receptor [3]; read-out: Ki): 23 nM
half-life (T1/2) relative to the comparative examples [2]: shorter T1/2
volume of distribution (Vd) relative to the comparative examples [2]: lower Vd
CI ([2]; i.v. 1 mg/kg, citric acid salt): 15.2 mL/min/kg
Cmax [2, 4]: 2920 nM
half-life [2, 4]: 1.47 h
AUC(0-inf) [2, 10]: 3.07 µM·h
Cmax [2, 6]: 8730 nM
Tmax [2, 6]: 0.83 h
half-life [2, 6]: 3.58 h
AUC(0-inf) [2, 11]: 33.2 µM·h
Vd [2, 8]: 1.91 L/kg
